# Reference: ChEMBL document CHEMBL1201862, “PubChem BioAssay data set” (2004)
# The source made the active and inactive calls.
# Assays:
# Streptokinase A = target: T1, Streptokinase A (Streptococcus pyogenes serotype M1, UniProt P10520); assay: S. pyogenes streptokinase expression inhibitors, potency, dose response, plasminogen activation absorbance, OD405 (AID 1914); type: functional, Streptococcus pyogenes M1 GAS;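 also: secreted streptokinase activity via plasminogen activation per viability signal from cell pellet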
# T1 sequence (P10520 whole entry): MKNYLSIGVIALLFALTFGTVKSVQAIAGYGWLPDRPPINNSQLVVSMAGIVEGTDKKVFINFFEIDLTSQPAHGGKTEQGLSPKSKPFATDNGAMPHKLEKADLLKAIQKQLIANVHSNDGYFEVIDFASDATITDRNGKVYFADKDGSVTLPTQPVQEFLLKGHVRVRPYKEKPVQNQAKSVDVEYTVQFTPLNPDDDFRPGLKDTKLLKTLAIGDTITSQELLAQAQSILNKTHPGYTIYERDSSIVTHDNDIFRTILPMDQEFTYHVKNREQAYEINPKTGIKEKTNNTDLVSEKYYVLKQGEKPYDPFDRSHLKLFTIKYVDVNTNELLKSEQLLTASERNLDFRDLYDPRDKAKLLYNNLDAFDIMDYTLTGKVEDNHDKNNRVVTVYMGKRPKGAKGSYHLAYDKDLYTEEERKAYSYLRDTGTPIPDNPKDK
# [1] = system: Streptococcus sp. 'group A'; assay: growth inhibition of control SK(-) GAS strain, dose response, counter-screen for streptokinase expression inhibitor project, luminescence, kanamycin, BacTiterGlo, confirmation (AID 1900); type: functional, organism-based
# Streptococcus = assay: Group A Streptococcus viability loss, dose response, counter-screen for streptokinase expression inhibitor project, luminescence, BacTiterGlo (AID 1915); type: functional, organism-based;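 also: potency for reduction of bacterial viability or growth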
# Cytochrome P450 2C19 = Cytochrome P450 2C19 (Homo sapiens, UniProt P33261); assay: Cytochrome panel assay with activity outcomes. Panel member name: p450-cyp2c19 Compounds with AC50 equal or less than 10 uM are considered active; type: functional
# [2] = HEp-2 cell cytotoxicity, dose response, cytotoxicity control for RSV inhibitor project, HTS (AID 2410); type: functional; details: human respiratory syncytial virus
# Cytochrome P450 1A2 = target: T2, Cytochrome P450 1A2 (Homo sapiens, UniProt P05177);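 also: PubChem cytochrome P450 panel assay, CYP1A2 panel member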
# T2 sequence (P05177 whole entry): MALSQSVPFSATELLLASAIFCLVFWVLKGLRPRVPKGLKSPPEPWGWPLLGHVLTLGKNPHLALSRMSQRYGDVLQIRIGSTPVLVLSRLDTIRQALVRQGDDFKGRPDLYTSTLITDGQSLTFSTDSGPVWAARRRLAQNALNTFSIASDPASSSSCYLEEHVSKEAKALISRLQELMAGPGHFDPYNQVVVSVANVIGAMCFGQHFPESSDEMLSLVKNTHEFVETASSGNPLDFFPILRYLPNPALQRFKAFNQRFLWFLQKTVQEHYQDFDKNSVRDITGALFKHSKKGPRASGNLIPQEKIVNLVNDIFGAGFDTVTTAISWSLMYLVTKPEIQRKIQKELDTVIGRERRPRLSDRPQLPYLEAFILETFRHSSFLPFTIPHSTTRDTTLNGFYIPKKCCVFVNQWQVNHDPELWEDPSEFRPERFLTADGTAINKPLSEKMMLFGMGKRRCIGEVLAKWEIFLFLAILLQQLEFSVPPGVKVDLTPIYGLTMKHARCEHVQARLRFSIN
# Cytochrome P450 3A4 = Cytochrome P450 3A4 (Homo sapiens, UniProt P08684);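 also: CYP3A4 tested as one member of a cytochrome P450 panel screen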
# Paired box protein Pax-8 = Paired box protein Pax-8 (Homo sapiens, UniProt Q06710); assay: inhibitors of PAX8-driven TPO luciferase reporter, dose response, RMG-I cells, cherry-pick (AID 687027); type: functional, cell-based;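 also: luciferase reporter driven by Pax8 target thyroperoxidase promoter measured by SteadyGlo luminescence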
# [3] = target: T3, Corticotropin-releasing factor receptor 2/Corticotropin-releasing factor-binding protein (Homo sapiens, UniProt P24387+Q13324); assay: activators of CRF receptor 2 with binding protein – uHTS hits, confirmation (AID 602473); type: functional; details: read-out: EC50_Mean
# T3 sequence (Q13324 whole entry): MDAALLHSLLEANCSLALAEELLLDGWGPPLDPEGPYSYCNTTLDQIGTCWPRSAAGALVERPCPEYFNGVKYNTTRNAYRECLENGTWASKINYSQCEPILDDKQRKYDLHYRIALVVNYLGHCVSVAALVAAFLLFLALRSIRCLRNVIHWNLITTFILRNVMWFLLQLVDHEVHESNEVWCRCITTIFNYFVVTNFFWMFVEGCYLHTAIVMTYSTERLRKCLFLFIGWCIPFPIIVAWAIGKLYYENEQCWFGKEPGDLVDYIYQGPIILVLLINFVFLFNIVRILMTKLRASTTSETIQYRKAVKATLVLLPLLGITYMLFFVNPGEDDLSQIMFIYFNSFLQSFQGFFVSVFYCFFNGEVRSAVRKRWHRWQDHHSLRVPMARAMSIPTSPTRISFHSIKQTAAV
# T3 sequence (P24387 whole entry): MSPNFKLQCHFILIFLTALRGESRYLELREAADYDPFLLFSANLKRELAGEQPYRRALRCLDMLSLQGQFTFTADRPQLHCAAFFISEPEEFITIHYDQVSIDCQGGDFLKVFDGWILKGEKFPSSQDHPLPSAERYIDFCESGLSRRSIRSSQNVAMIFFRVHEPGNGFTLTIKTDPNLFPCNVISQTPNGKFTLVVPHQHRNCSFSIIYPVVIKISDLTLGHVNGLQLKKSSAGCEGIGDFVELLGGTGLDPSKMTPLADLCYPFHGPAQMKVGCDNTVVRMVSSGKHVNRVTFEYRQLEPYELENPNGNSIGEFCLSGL
# Cytochrome P450 2C9 = Cytochrome P450 2C9 (Homo sapiens, UniProt P11712)
# [4] = inhibitors of intracellular T. cruzi replication, confirmation, NIH3T3 host cells, beta-gal luminescence (AID 2044); type: functional, cell-based;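 also: intracellular parasites grown in NIH/3T3 mouse fibroblasts as host cells; luminescent beta-galactosidase reporter signal from transgenic T. cruzi replicating inside host cells; inhibitors lower the luminescence signal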
# [5] = cytotoxicity toward NIH3T3 fibroblasts, dose response, counter-screen, cell-based, ATP luminescence, mouse fibroblasts (AID 2010); type: functional;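 also: cells exposed to compound for about 90 hours before reading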
# [6] = Shn3 3'UTR reporter inhibitors, dose response, cell-based, Clone20 osteoblasts, firefly luciferase, cherry-picked (AID 624132); type: functional;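 also: firefly luciferase luminescence from reporter carrying the Shn3 3'UTR in osteoblasts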
# [7] = control 3'UTR Renilla luciferase suppression, dose response, counter-screen for Shn3 inhibitor project, cell-based, Clone20-Shn3RL, cherry-picked (AID 624133); type: functional
# [8] = Luminescence Cell-Based Dose Retest to Confirm Inhibitors of Cancer Stem Cells. [Related pubchem assays (depositor defined):AID2717, AID2721]; type: functional; details: Homo sapiens
# Sequence of Cytochrome P450 2C9 (P11712 whole entry): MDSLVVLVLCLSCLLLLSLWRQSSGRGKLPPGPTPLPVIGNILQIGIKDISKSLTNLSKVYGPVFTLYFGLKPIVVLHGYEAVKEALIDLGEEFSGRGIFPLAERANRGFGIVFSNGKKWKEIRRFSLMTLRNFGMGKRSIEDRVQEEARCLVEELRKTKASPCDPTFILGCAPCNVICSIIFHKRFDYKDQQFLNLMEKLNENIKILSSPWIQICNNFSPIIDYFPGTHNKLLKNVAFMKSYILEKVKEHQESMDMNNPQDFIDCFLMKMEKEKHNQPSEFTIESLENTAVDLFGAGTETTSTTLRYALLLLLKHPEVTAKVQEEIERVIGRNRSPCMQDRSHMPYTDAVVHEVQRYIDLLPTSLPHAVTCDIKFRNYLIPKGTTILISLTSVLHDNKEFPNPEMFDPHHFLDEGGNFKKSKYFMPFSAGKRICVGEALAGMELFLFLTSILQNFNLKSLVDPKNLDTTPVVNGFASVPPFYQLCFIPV
# Sequence of Cytochrome P450 3A4 (P08684 whole entry): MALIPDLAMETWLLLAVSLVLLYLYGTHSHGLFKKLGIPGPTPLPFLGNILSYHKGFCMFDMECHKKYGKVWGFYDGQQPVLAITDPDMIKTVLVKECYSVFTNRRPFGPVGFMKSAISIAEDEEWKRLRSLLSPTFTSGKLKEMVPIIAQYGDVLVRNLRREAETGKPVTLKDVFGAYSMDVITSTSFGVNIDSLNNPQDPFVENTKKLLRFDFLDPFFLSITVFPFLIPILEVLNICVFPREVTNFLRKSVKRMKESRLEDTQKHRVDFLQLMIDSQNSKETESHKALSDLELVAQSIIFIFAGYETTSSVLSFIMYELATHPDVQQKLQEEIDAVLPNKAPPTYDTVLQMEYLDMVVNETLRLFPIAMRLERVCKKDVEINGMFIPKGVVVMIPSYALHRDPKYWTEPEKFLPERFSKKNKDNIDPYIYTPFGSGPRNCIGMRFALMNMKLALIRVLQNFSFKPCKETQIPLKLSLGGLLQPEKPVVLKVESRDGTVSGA
# Sequence of Cytochrome P450 2C19 (P33261 whole entry): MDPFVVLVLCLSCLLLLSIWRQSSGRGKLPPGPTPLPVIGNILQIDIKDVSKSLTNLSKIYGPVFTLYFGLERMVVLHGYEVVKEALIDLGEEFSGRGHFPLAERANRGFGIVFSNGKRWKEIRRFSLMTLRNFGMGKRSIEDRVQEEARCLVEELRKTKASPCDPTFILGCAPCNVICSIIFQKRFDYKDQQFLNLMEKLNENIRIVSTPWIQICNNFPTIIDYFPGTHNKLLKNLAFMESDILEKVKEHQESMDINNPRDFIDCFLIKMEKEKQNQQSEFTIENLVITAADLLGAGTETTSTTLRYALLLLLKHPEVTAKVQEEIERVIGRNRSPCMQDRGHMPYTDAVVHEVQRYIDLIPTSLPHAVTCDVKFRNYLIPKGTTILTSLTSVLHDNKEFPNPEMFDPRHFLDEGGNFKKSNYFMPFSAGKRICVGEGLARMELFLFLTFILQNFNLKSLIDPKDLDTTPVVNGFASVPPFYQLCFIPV
# Sequence of Paired box protein Pax-8 (Q06710 whole entry): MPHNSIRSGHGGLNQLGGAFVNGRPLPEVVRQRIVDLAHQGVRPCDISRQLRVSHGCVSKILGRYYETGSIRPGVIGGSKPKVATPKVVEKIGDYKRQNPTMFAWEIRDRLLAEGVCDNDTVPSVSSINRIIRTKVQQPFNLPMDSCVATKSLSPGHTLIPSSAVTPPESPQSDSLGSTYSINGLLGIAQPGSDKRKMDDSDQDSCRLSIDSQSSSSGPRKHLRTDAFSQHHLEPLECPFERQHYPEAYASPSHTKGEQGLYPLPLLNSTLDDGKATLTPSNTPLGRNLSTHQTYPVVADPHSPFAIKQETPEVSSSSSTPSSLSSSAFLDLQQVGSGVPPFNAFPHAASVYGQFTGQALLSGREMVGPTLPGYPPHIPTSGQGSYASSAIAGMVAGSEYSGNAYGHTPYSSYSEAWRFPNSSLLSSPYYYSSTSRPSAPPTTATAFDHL
compound,measurement,setting,value
COc1cc(OC)cc(C(=O)Nc2nnc(NC(=S)Nc3ccccc3)s2)c1,EC50,Streptokinase A,> 150 µM (not active)
CCc1nc2c3cnn(-c4cc(Cl)ccc4C)c3ncn2n1,EC50,[1],> 150 µM (not active)
same,EC50,Streptococcus,> 150 µM (not active)
same,EC50,Streptokinase A,> 150 µM (not active)
COC(=O)N1CCC2(CCCN(c3ccncc3)C2)CC1,AC50,Cytochrome P450 2C19,inconclusive
Cc1ccc(NC(S)=NCc2ccc3[nH]c4c(c3c2)CCCC4)cc1,CC50,[2],9.29 µM (active)
N#CC1(c2ccc(NC(=O)c3ccccc3F)cc2)CCCC1,CC50,[2],> 50 µM (active)
COc1ccc(NP(=O)(Oc2ccc(Cl)cc2)Oc2ccc(Cl)cc2)cc1OC,EC50,[1],12.4 µM (active)
same,EC50,Streptococcus,16.3 µM (active)
same,EC50,Streptokinase A,21.1 µM (active)
COCCCNC(=S)NNC(=S)Nc1cccc(Cl)c1,EC50,Streptokinase A,> 150 µM (not active)
COCCn1c(=O)c(-c2ccc(F)cc2)nc2cnc(Nc3cccc(OC)c3)nc21,AC50,Cytochrome P450 1A2,3.16 µM (inconclusive)
O=C(c1ccco1)N1CCC2(CCCN(c3ccccn3)C2)CC1,AC50,Cytochrome P450 3A4,15.8 µM (inconclusive)
same,AC50,Cytochrome P450 1A2,10 µM (inconclusive)
CCOC(=O)c1ccc(NC(=O)c2sc3nc4n(c(=O)c3c2C)CCC4)cc1,EC50,[1],1.48 µM (active)
same,EC50,Streptococcus,20.2 µM (active)
same,EC50,Streptokinase A,> 150 µM (not active)
Cn1c(SCc2ccccc2Cl)nc2c1c(=O)[nH]c(=O)n2C,CC50,[2],> 50 µM (active)
O=C(Nc1ccc(N2CCCCC2)c(Cl)c1)c1nc[nH]n1,CC50,[2],16.6 µM (active)
O=C1NN=C(c2ccc(Cl)cc2)CC1c1cccc(Cl)c1 (stereo not given),CC50,[2],30.2 µM (active)
C[C@@H]1CN([C@H](C)CO)C(=O)c2cc(NC(=O)Nc3ccc(C(F)(F)F)cc3)ccc2O[C@@H](C)CCCCO[C@H]1CN(C)S(=O)(=O)c1ccc(F)cc1,AC50,Paired box protein Pax-8,6.53 µM (active)
CCc1ccccc1S(=O)(=O)Cc1ccc(C(=O)N2CCN(c3ccccc3OC)CC2)o1,CC50,[2],> 50 µM (active)
Cc1nnc(-c2cnn(-c3ccccc3)c2N)n1Cc1ccncc1,AC50,Cytochrome P450 3A4,15.8 µM (inconclusive)
same,AC50,Cytochrome P450 1A2,11.2 µM (inconclusive)
same,AC50,Cytochrome P450 2C19; read-out: AC50,11.2 µM (inconclusive)
CCC1(c2ccc(F)cc2)NC(=O)N(CC(=O)N2CCc3ccccc32)C1=O (stereo not given),EC50,[3],11 µM (active)
CCCCCCCCCc1nc2sc3c(c2c(=O)n1NC(=O)c1ccc([N+](=O)[O-])cc1)CC(C)(C)OC3,EC50,[1],3.71 µM (active)
same,EC50,Streptococcus,39.8 µM (active)
same,EC50,Streptokinase A,2.17 µM (active)
Cc1ccc(CN2CC(C(=O)Nc3nnc(SCc4c(Cl)cccc4Cl)s3)CC2=O)cc1 (stereo not given),EC50,[1],4.07 µM (active)
same,EC50,Streptococcus,37.2 µM (active)
same,EC50,Streptokinase A,5.57 µM (active)
Cc1cccc(NC(=NS(=O)(=O)c2ccccc2)C(F)(F)F)c1,AC50,Cytochrome P450 3A4,25.1 µM (inconclusive)
same,AC50,Cytochrome P450 2C19; read-out: AC50,22.4 µM (inconclusive)
CCCCn1cnc2c(cnn2-c2ccc(F)cc2)c1=O,AC50,Cytochrome P450 2C19; read-out: AC50,2.51 µM (inconclusive)
Cc1cccc(OC2(c3ccccc3)OC(=O)c3ccccc32)c1C (stereo not given),AC50,Cytochrome P450 3A4,28.2 µM (inconclusive)
same,AC50,Cytochrome P450 1A2,14.1 µM (inconclusive)
C[C@@H]1CCCCO[C@H](CN(C)C(=O)C2CCCCC2)[C@@H](C)CN([C@@H](C)CO)C(=O)c2cc(NC(=O)Nc3ccccc3)ccc2O1,AC50,Paired box protein Pax-8,5.39 µM (active)
O=C(O)/C=C\c1ccc(Cn2ccnc2)cc1,AC50,Cytochrome P450 1A2,12.6 µM (inconclusive)
O=C(Nc1cccc2ncccc12)c1cccc(F)c1,AC50,Cytochrome P450 3A4,22.4 µM (inconclusive)
same,AC50,Cytochrome P450 1A2,15.8 µM (inconclusive)
C/C(N)=C(/C#N)C(=O)CSc1nnc(COc2cc(C)ccc2C)o1,AC50,Cytochrome P450 2C9,7.08 µM (inconclusive)
same,AC50,Cytochrome P450 1A2,4.47 µM (inconclusive)
CN(Cc1c(F)cccc1Cl)C(=O)CCc1c[nH]c2ccccc12,CC50,[2],30 µM (active)
CCC(C)Nc1nc(OCC(F)(F)F)nc(OCC(F)(F)F)n1 (stereo not given),AC50,Cytochrome P450 2C19; read-out: AC50,3.16 µM (inconclusive)
COC(=O)c1c(-c2ccc(C)cc2)csc1NC(=O)c1c(-c2ccccc2)noc1C,CC50,[2],26.5 µM (active)
CCOC(=O)CSc1nnc(Cc2cc(O)nc(O)n2)n1-c1cccc(OC)c1,AC50,Cytochrome P450 3A4,22.4 µM (inconclusive)
same,AC50,Cytochrome P450 2C19,inconclusive
N=c1c(-c2nc3ccccc3[nH]2)cc(C(=O)c2cccs2)nn1-c1ccccc1,EC50,[1],1.51 µM (active)
same,EC50,Streptococcus,5.63 µM (active)
same,EC50,[4],0.39 µM (active)
same,EC50,[5],> 60 µM (not active)
same,CC50,[2],15.3 µM (active)
CC12CC(O)C3c4ccc(O)cc4CCC3C1CCC2=O (stereo not given),AC50,[6],> 70 µM (inactive)
same,AC50,[7],26.8 µM (active)
CCCn1nc(Oc2nc(NCC)nc(NCC)n2)ccc1=O,AC50,Cytochrome P450 1A2,15.8 µM (inconclusive)
same,AC50,Cytochrome P450 2C19; read-out: AC50,31.6 µM (inconclusive)
COc1cc(OC)cc(C(=O)Nc2nnc(N=C(S)Nc3ccccc3)s2)c1,EC50,[1],9.71 µM (active)
same,EC50,Streptococcus,30.7 µM (active)
same,CC50,[2],8.31 µM (active)
CN(Cc1cc(Br)cc(Br)c1O)Cc1c(O)ccc2ccccc12,AC50,Cytochrome P450 2C9,3.16 µM (inconclusive)
same,AC50,Cytochrome P450 3A4,3.98 µM (inconclusive)
same,AC50,Cytochrome P450 1A2,1.26 µM (inconclusive)
CC1CCCCN1c1cc(C#N)c(C#N)cc1[N+](=O)[O-] (stereo not given),AC50,Cytochrome P450 2C9,5.01 µM (inconclusive)
same,AC50,Cytochrome P450 3A4,15.8 µM (inconclusive)
same,AC50,Cytochrome P450 1A2,3.16 µM (inconclusive)
same,AC50,[8],0.174 µM (active)
COc1ccccc1N1CCN(C(=O)c2sc3ncnc(N4CCN(c5ccccn5)CC4)c3c2C)CC1,CC50,[2],12.2 µM (active)
COc1ccc(-c2nn(-c3ccccc3)cc2/C=N/NS(=O)(=O)c2ccccc2)cc1,CC50,[2],17.8 µM (active)
C[C@@H](CN1CCC(Cc2ccccc2)CC1)[C@H](O)c1ccc(O)cc1,AC50,Cytochrome P450 1A2,12.6 µM (inconclusive)
CCCCCCNC(=O)C(C#N)c1nc2ccccc2nc1N1CCCC1 (stereo not given),EC50,[3],5.12 µM (active)
CCCCCn1c(SCc2ccncc2)nc2cc(C(=O)NCc3ccco3)ccc2c1=O,CC50,[2],48.3 µM (active)
COc1ccc(-n2c(=O)c(C)nc3cnc(Nc4ccccc4)nc32)cc1,AC50,Cytochrome P450 2C9,20 µM (inconclusive)
same,AC50,Cytochrome P450 1A2,5.01 µM (inconclusive)
CN(Cc1ccco1)c1ccnc(-c2ccoc2)n1,AC50,Cytochrome P450 2C19; read-out: AC50,25.1 µM (inconclusive)
COCCNC(=O)C(c1ccc(C)o1)N(CC1CCCO1)C(=O)Cn1nnc2ccccc21 (stereo not given),AC50,Cytochrome P450 3A4,15.8 µM (inconclusive)
same,AC50,Cytochrome P450 1A2,12.6 µM (inconclusive)
same,AC50,Cytochrome P450 2C19,inconclusive
CCCCC1=NN2C(=N)CC(=O)N=C2S1,AC50,Cytochrome P450 2C9,2.51 µM (inconclusive)
same,AC50,Cytochrome P450 1A2,25.1 µM (inconclusive)
